# Target: T1, phosphatase ABI1 via the co-regulator RCAR11/PYR1 (Arabidopsis thaliana, UniProt O49686+P49597)
# T1 sequence (O49686 1-191): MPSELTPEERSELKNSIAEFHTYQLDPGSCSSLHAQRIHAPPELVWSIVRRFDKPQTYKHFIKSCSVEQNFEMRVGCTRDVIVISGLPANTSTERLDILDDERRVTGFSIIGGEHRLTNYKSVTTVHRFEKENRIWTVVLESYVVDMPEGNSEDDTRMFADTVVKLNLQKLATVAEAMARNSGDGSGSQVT
# T1 sequence (P49597 1-434): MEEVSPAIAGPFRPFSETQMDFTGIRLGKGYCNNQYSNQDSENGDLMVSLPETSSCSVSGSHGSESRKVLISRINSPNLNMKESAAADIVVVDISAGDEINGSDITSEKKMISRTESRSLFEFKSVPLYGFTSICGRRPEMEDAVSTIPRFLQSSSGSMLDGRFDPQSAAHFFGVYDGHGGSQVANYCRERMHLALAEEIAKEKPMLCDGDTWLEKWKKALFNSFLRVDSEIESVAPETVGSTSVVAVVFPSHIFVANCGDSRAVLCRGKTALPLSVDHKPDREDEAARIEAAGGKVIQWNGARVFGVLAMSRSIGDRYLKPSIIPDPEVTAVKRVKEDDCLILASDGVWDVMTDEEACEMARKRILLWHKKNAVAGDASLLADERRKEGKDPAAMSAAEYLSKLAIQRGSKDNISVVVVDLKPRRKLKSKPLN
# Assay: In vitro assay: inhibition of the phosphatase ABI1 via the co-regulator RCAR11/PYR1, MUP dephosphorylation, fluorescence
# Assay type: biochemical
# Design: inhibition: dose or concentration left out as unconfirmed
# Conditions: MUP dephosphorylation, fluorescence 460 nm; read-out: ABI1 inhibition
# Method in brief: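 ABI1 (0.15 μg/well) with RCAR11 (0.30 μg/well) in Tris-HCl pH 8, NaCl, MnCl2, DTT and Tween20, with MUP as substrate; 20 min at 35 °C, fluorescence at ex 340/em 460 nm. Compounds were in DMSO/water, esterase-pretreated if needed, with DMSO 0.5% and ABA 5 μM as controls. Inhibition was binned into ≥90, 70–90, 50–70 and 30–50% classes.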
row,inhibition [%],SMILES
1,> 90,"CCOC(=O)/C=C(\C#CC(O)(C(C)C)C1(C#N)CC1)C1CC1 (stereo not drawn) [I.1-124, Ethyl (2Z)-6-(1-cyanocyclopropyl)-3-cyclopropyl-6-hydroxy-7-methyloct-2-en-4-ynoate]"

# Same assay, conditions: concentration of 5 mM of the substance in a solution of DMSO and water; MUP dephosphorylation, fluorescence 460 nm
row,ABI1 inhibition,SMILES
1,++++ (inhibition≥90%),CCCOC(=O)/C=C(\C#CC(O)(C(C)C)C1(C#N)CC1)CC (stereo not drawn) [I.1-605]
2,++++ (inhibition≥90%),CCCOC(=O)/C=C(\C#CC(O)(c1ccccc1)C1(C#N)CC1)CC (stereo not drawn) [I.1-609]
3,++++ (inhibition≥90%),CCOC(=O)/C=C(\C#CC(O)(C(C)C)C1(C#N)CC1)CC (stereo not drawn) [I.1-103]
4,++++ (inhibition≥90%),CC/C(C#CC(O)(c1ccccc1)C1(C#N)CC1)=C/C(=O)OC (stereo not drawn) [I.1-202]
5,++++ (inhibition≥90%),COC(=O)/C=C(/C)C#CC(O)(C(C)C)C1(C#N)CC1 (stereo not drawn) [I.1-135]
6,+++ (90%>inhibition≥70%),CCOC(=O)/C=C(/C)C#CC(O)(C(C)C)C1(C#N)CC1 (stereo not drawn) [I.1-136]
7,++++ (inhibition≥90%),CC/C(C#CC(O)(C1CCC1)C1(C#N)CC1)=C/C(=O)OC (stereo not drawn) [I.1-648]
8,++++ (inhibition≥90%),CCC(C=CC(O)(c1ccccc1)C1(C#N)CC1)=CC(=O)O (racemic) [I.2-201]

# From patent publication US10322995B2, “Substituted cyano cycloalkyl penta-2,4-dienes, cyano cycloalkyl pent-2-en-4-ynes, cyano heterocyclyl penta-2,4-dienes and cyano heterocyclyl pent-2-en-4-ynes as active substances against abiotic plant stress” (BAYER CROPSCIENCE AKTIENGESELLSCHAFT, priority 2014, dated 2019)
